Experimental data: the supplement of paper PMC4862054

Columns and labels:
Conditions in all cases: incubation time: 72 h
BT-474 [1] = assay: drug sensitivity score (DSS), CellTox Green (DSS (AUC-based score)); higher = stronger drug effect (viability inhibition or cytotoxicity); extreme values may be limits of the assay
Outline: (§1)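 Compound was dispensed into 384-well plates at 5 concentrations in 10-fold steps spanning a 10,000-fold range chosen for each compound, and 20 µl of breast cancer cell suspension was added before 72 h of incubation. CellTox Green fluorescence was read at 485/520 nm, followed by CellTiter-Glo luminescence after 10 min at room temperature. Values on each plate were normalised to 0.1 % DMSO and a positive kill control. The drug sensitivity score came from the area under the fitted dose-response curve.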

HCC1937 [2] = assay: as above
Outline: as §1

HCC1599 [3] = assay: as above
Outline: as §1

BT-549 [4] = assay: as above
Outline: as §1

MDA-MB-436 [5] = assay: as above
Outline: as §1

DU-4475 [6] = assay: as above
Outline: as §1

HDQ-P1 [7] = assay: normalised viability (% of control), CellTiter-Blue; higher = more viable cells (about 100 = DMSO control)
Description: (§2)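 DSRT, CellTiter-Blue viability, 72 h incubation. Signal is normalised to DMSO and benzethonium chloride controls. Value is the normalised response at dose 7.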

CAL-148 [8] = assay: as above
Description: as §2

CAL-51 [9] = assay: as above
Description: as §2

DU-4475 [10] = assay: as above
Description: as §2

MDA-MB-453 [11] = assay: as above
Description: as §2

CAL-85-1 [12] = assay: as above
Description: as §2

BT-474 [13] = assay: normalised viability (% of control), CellTiter-Blue; higher = more viable cells (about 100 = DMSO control)
Outline: (§3)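 The reported figure is normalised viability at a single listed concentration of the series. Breast cancer cell lines (20 µl suspension) went onto 384-well plates holding compound in 5 µl medium for 72 h. CellTiter-Blue (2.5 µl, 2 h, 37 °C) was read by fluorescence at 560/590 nm, and each plate was scaled to vehicle at 100 and a positive kill control at 0.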

MFM-223 = assay: as above
Outline: as §3

HCC1937 [14] = assay: as above
Outline: as §3

SK-BR-3 = assay: as above
Outline: as §3

HCC1599 [15] = assay: as above
Outline: as §3

HDQ-P1 [16] = assay: as above; remark: listed apart in the source
Outline: as §3

Hs578T = assay: as above
Outline: as §3

BT-549 [17] = assay: as above
Outline: as §3

MDA-MB-231 = assay: as above
Outline: as §3

HCC1143 = assay: as above
Outline: as §3

MDA-MB-436 [18] = assay: as above
Outline: as §3

CAL-148 [19] = assay: as above; remark: listed apart in the source
Outline: as §3

CAL-51 [20] = assay: as above; remark: listed apart in the source
Outline: as §3

CAL-120 = assay: as above
Outline: as §3

DU-4475 [21] = assay: as above; remark: listed apart in the source
Outline: as §3

MDA-MB-453 [22] = assay: as above; remark: listed apart in the source
Outline: as §3

CAL-85-1 [23] = assay: as above; remark: listed apart in the source
Outline: as §3

MDA-MB-468 = assay: as above
Outline: as §3

## Cn1cncc1[C@@](N)(c1ccc(Cl)cc1)c1ccc2c(c1)c(-c1cccc(Cl)c1)cc(=O)n2C [Tipifarnib]
BT-474 [1]
  drug sensitivity score: 0
HCC1937 [2]
  drug sensitivity score: 0
HCC1599 [3]
  drug sensitivity score: 0
BT-549 [4]
  drug sensitivity score: 0
MDA-MB-436 [5]
  drug sensitivity score: 0
DU-4475 [6]
  drug sensitivity score: 0
HDQ-P1 [7]; 1000 nM
  normalised viability: 66.6%
CAL-148 [8]; 1000 nM
  normalised viability: 42.9%
CAL-51 [9]; 1000 nM
  normalised viability: 59.9%
DU-4475 [10]; 1000 nM
  normalised viability: 40.6%
MDA-MB-453 [11]; 1000 nM
  normalised viability: 49.1%
CAL-85-1 [12]; 1000 nM
  normalised viability: 62.8%
BT-474 [13]; 10 nM
  normalised viability: 109%
MFM-223; 10 nM
  normalised viability: 84.6%
HCC1937 [14]; 10 nM
  normalised viability: 95.6%
SK-BR-3; 10 nM
  normalised viability: 91%
HCC1599 [15]; 10 nM
  normalised viability: 92.7%
HDQ-P1 [16]; 3 nM
  normalised viability: 74.6%
Hs578T; 10 nM
  normalised viability: 88.9%
BT-549 [17]; 10 nM
  normalised viability: 86.3%
MDA-MB-231; 10 nM
  normalised viability: 82.2%
HCC1143; 10 nM
  normalised viability: 71.9%
MDA-MB-436 [18]; 10 nM
  normalised viability: 94.1%
CAL-148 [19]; 3 nM
  normalised viability: 92.2%
CAL-51 [20]; 3 nM
  normalised viability: 108%
CAL-120; 10 nM
  normalised viability: 77.6%
DU-4475 [21]; 3 nM
  normalised viability: 99.4%
MDA-MB-453 [22]; 3 nM
  normalised viability: 102%
CAL-85-1 [23]; 3 nM
  normalised viability: 81.4%
MDA-MB-468; 10 nM
  normalised viability: 96.8%

## O=C1NC(=O)[C@@H](c2cn3c4c(cccc24)CCC3)[C@@H]1c1c[nH]c2ccccc12 [Tivantinib]
BT-474 [1]
  drug sensitivity score: 0
HCC1937 [2]
  drug sensitivity score: 0
HCC1599 [3]
  drug sensitivity score: 0
BT-549 [4]
  drug sensitivity score: 0
MDA-MB-436 [5]
  drug sensitivity score: 0
DU-4475 [6]
  drug sensitivity score: 0
HDQ-P1 [7]; 100 nM
  normalised viability: 106%
CAL-148 [8]; 100 nM
  normalised viability: 112%
CAL-51 [9]; 100 nM
  normalised viability: 104%
DU-4475 [10]; 100 nM
  normalised viability: 109%
MDA-MB-453 [11]; 100 nM
  normalised viability: 78.1%
CAL-85-1 [12]; 100 nM
  normalised viability: 77.2%
BT-474 [13]; 1 nM
  normalised viability: 127%
MFM-223; 1 nM
  normalised viability: 83.8%
HCC1937 [14]; 1 nM
  normalised viability: 67.8%
SK-BR-3; 1 nM
  normalised viability: 105%
HCC1599 [15]; 1 nM
  normalised viability: 115%
HDQ-P1 [16]; 0.3 nM
  normalised viability: 104%
Hs578T; 1 nM
  normalised viability: 133%
BT-549 [17]; 1 nM
  normalised viability: 107%
MDA-MB-231; 1 nM
  normalised viability: 106%
HCC1143; 1 nM
  normalised viability: 90.7%
MDA-MB-436 [18]; 1 nM
  normalised viability: 97.7%
CAL-148 [19]; 0.3 nM
  normalised viability: 97.9%
CAL-51 [20]; 0.3 nM
  normalised viability: 104%
CAL-120; 1 nM
  normalised viability: 93.4%
DU-4475 [21]; 0.3 nM
  normalised viability: 107%
MDA-MB-453 [22]; 0.3 nM
  normalised viability: 122%
CAL-85-1 [23]; 0.3 nM
  normalised viability: 90.2%
MDA-MB-468; 1 nM
  normalised viability: 112%

## CC[C@]1(O)C[C@H]2CN(CCc3c([nH]c4ccccc34)[C@@](C(=O)OC)(c3cc4c(cc3OC)N(C=O)[C@H]3[C@@](O)(C(=O)OC)[C@H](OC(C)=O)[C@]5(CC)C=CCN6CC[C@]43[C@@H]65)C2)C1 [Vincristine]
BT-474 [1]
  drug sensitivity score: 6.14
HCC1937 [2]
  drug sensitivity score: 0
HCC1599 [3]
  drug sensitivity score: 2.79
BT-549 [4]
  drug sensitivity score: 9.25
MDA-MB-436 [5]
  drug sensitivity score: 0
DU-4475 [6]
  drug sensitivity score: 0
HDQ-P1 [7]; 100 nM
  normalised viability: 36.1%
HDQ-P1 [7]; 1000 nM
  normalised viability: 43.1%
CAL-148 [8]; 100 nM
  normalised viability: 16%
CAL-148 [8]; 1000 nM
  normalised viability: 26%
CAL-51 [9]; 100 nM
  normalised viability: 27%
CAL-51 [9]; 1000 nM
  normalised viability: 10.3%
DU-4475 [10]; 100 nM
  normalised viability: 34.1%
DU-4475 [10]; 1000 nM
  normalised viability: 8.18%
MDA-MB-453 [11]; 100 nM
  normalised viability: 34.3%
MDA-MB-453 [11]; 1000 nM
  normalised viability: 36.4%
CAL-85-1 [12]; 100 nM
  normalised viability: 43.9%
CAL-85-1 [12]; 1000 nM
  normalised viability: 34.7%
BT-474 [13]; 1 nM
  normalised viability: 53.4%
BT-474 [13]; 10 nM
  normalised viability: 47.9%
MFM-223; 1 nM
  normalised viability: 91.1%
MFM-223; 10 nM
  normalised viability: 85.5%
HCC1937 [14]; 1 nM
  normalised viability: 99.2%
HCC1937 [14]; 10 nM
  normalised viability: 23.1%
SK-BR-3; 1 nM
  normalised viability: 33.8%
SK-BR-3; 10 nM
  normalised viability: 15.9%
HCC1599 [15]; 1 nM
  normalised viability: 84.1%
HCC1599 [15]; 10 nM
  normalised viability: 106%
HDQ-P1 [16]; 0.3 nM
  normalised viability: 100%
HDQ-P1 [16]; 3 nM
  normalised viability: 96.4%
Hs578T; 1 nM
  normalised viability: 97.2%
Hs578T; 10 nM
  normalised viability: 15.5%
BT-549 [17]; 1 nM
  normalised viability: 82.7%
BT-549 [17]; 10 nM
  normalised viability: 43.7%
MDA-MB-231; 1 nM
  normalised viability: 73.8%
MDA-MB-231; 10 nM
  normalised viability: 27.5%
HCC1143; 1 nM
  normalised viability: 71%
HCC1143; 10 nM
  normalised viability: 40.7%
MDA-MB-436 [18]; 1 nM
  normalised viability: 105%
MDA-MB-436 [18]; 10 nM
  normalised viability: 70.6%
CAL-148 [19]; 0.3 nM
  normalised viability: 80.4%
CAL-148 [19]; 3 nM
  normalised viability: 85.3%
CAL-51 [20]; 0.3 nM
  normalised viability: 102%
CAL-51 [20]; 3 nM
  normalised viability: 103%
CAL-120; 1 nM
  normalised viability: 58.2%
CAL-120; 10 nM
  normalised viability: 23.4%
DU-4475 [21]; 0.3 nM
  normalised viability: 96.6%
DU-4475 [21]; 3 nM
  normalised viability: 89%
MDA-MB-453 [22]; 0.3 nM
  normalised viability: 112%
MDA-MB-453 [22]; 3 nM
  normalised viability: 65%
CAL-85-1 [23]; 0.3 nM
  normalised viability: 95.6%
CAL-85-1 [23]; 3 nM
  normalised viability: 86.1%
MDA-MB-468; 1 nM
  normalised viability: 54.2%
MDA-MB-468; 10 nM
  normalised viability: 41.2%
